Activity calls are given as the source filed them.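 How the source made its calls: active means inhibition above 55% when tested at 5 µM; inactive means the rest.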
Target: Protein AF-9 (Homo sapiens) (UniProt P42568)
Assay: inhibitors of AF9 AHD–DOT1L interaction, biochemical, AlphaLISA, percent inhibition, MBP-tagged AHD (AID 1794804)
Settings: MBP-AF9 AHD / biotin-DOT1L peptide binding; for inhibition: stronger effect = higher value

Protein AF-9 (Homo sapiens), sequence (P42568 whole entry, looked up): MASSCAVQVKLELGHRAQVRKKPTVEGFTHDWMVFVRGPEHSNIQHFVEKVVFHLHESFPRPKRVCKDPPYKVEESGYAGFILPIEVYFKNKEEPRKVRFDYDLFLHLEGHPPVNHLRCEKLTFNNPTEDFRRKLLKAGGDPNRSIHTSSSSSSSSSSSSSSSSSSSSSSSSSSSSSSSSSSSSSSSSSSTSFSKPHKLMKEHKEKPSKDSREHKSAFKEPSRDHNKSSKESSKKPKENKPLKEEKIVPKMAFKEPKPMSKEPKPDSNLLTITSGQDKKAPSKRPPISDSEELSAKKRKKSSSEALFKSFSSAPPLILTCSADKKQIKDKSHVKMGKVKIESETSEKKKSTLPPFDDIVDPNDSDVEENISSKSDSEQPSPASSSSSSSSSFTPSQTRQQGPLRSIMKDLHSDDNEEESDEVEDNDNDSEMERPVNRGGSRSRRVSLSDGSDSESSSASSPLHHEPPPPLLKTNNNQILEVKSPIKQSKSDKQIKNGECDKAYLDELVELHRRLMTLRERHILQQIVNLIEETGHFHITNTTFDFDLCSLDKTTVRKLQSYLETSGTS

inhibition (at 5 µM)	outcome	inhibition (inhibition, at 20 µM) [%]	Compound
50% (inactive)			O=C(NCC1CCNCC1)c1cc2ccc(-c3ccc(Cl)cc3)cc2s1
1% (inactive)			O=C(NCC1CCNCC1)c1cc2ccc(-c3ccc(C(=O)N4CCCC4)cc3)cc2o1
14% (inactive)			O=C(NCC1CCNCC1)c1cc2cc(-c3ccc(-c4ccsc4)cc3)ccc2[nH]1
21% (inactive)			O=C(NCC1CCNCC1)c1cc2ccc(-c3ccc(F)cc3)cc2s1
0% (inactive)			O=C(NCC1CCNCC1)c1cc2ccc(-c3ccc(CO)cc3)cc2s1
0% (inactive)			O=C(NCC1CCNCC1)c1cc2ccc(-c3ccc(C(=O)N4CCCC4)cc3)cc2s1
0% (inactive)			O=C(NCC1CCNCC1)c1cc2cc(-c3ccc(C(=O)N4CCCC4)cc3)ccc2s1
0% (inactive)			NC(=O)c1ccc(-c2ccc3cc(C(=O)NCC4CCNCC4)sc3c2)cc1
40% (inactive)			O=C(NCC1CCNCC1)c1cc2ccc(-c3ccc(N4CCOCC4)cc3)cc2s1
19% (inactive)			CS(=O)(=O)c1ccc(-c2ccc3cc(C(=O)NCC4CCNCC4)oc3c2)cc1
	inactive	70	CC(C)(C)c1ccc(-c2ccc3cc(C(=O)NCC4CCNCC4)sc3c2)cc1
0% (inactive)			O=C(NCC1CCNCC1)c1cc2ccc(-c3ccc(C(=O)N4CCC(N5CCCCC5)CC4)cc3)cc2s1
43% (inactive)			COc1ccc(-c2ccc3cc(C(=O)NCC4CCNCC4)sc3c2)cc1
0% (inactive)			CC(=O)Nc1ccc(-c2ccc3cc(C(=O)NCC4CCNCC4)sc3c2)cc1
8% (inactive)			O=C(NCC1CCNCC1)c1cc2ccc(-c3ccc(C(=O)N4CCCCC4)cc3)cc2s1
5% (inactive)			O=C(NCC1CCNCC1)c1cc2ccc(-c3ccc(C(=O)N4CCC(N5CCCC5)CC4)cc3)cc2s1
30% (inactive)			CCN(CC)c1ccc(-c2ccc3cc(C(=O)NCC4CCNCC4)oc3c2)cc1
11% (inactive)			NCc1ccc(-c2ccc3cc(C(=O)NCC4CCNCC4)[nH]c3c2)cc1

inhibition (at 5 µM)	outcome	inhibition (inhibition, at 20 µM) [%]	Compound
37% (inactive)			CC(=O)c1ccc(-c2ccc3cc(C(=O)NCC4CCNCC4)[nH]c3c2)cc1
25% (inactive)			CCN(CC)c1ccc(-c2ccc3cc(C(=O)NCC4CCNCC4)sc3c2)cc1
50% (inactive)			N#CCc1ccc(-c2ccc3cc(C(=O)NCC4CCNCC4)sc3c2)cc1
14% (inactive)			O=C(NCC1CCNCC1)c1cc2ccc(-c3ccc(OC(F)(F)F)cc3)cc2s1
45% (inactive)			O=C(NCC1CCNCC1)c1cc2ccc(-c3ccc(CN4CCCCC4)cc3)cc2s1
13% (inactive)			CC(C)(C)c1ccc(-c2ccc3[nH]c(C(=O)NCC4CCNCC4)cc3c2)cc1
	inactive	22	O=C(NCC1CCNCC1)c1cc2ccc(-c3ccc(CCO)cc3)cc2[nH]1
47% (inactive)			Cc1ccc(-c2ccc3cc(C(=O)NCC4CCNCC4)sc3c2)cc1
	inactive	30	N#Cc1ccc(-c2ccc3sc(C(=O)NCC4CCNCC4)cc3c2)cc1
	inactive	38	N#Cc1ccc(-c2ccc3cc(C(=O)NCC4CCNCC4)oc3c2)cc1
0% (inactive)			O=C(NCC1CCNCC1)c1cc2ccc(-c3ccc(O)cc3)cc2s1
	inactive	59	CC(C)(C)c1ccc(-c2ccc3sc(C(=O)NCC4CCNCC4)cc3c2)cc1
24% (inactive)			O=C(NCC1CCNCC1)c1cc2cc(Nc3ccc(OC(F)(F)F)cc3)ccc2s1
49% (inactive)			CS(=O)(=O)c1ccc(-c2ccc3cc(C(=O)NCC4CCNCC4)sc3c2)cc1
31% (inactive)			O=C(NCC1CCNCC1)c1cc2cc(-c3ccc(C(=O)N4CCCCC4)cc3)ccc2s1
45% (inactive)			CC(C)(C)c1ccc(Nc2ccc3sc(C(=O)NCC4CCNCC4)cc3c2)cc1
26% (inactive)			N#Cc1ccc(-c2ccc3cc(C(=O)NCC4CCNCC4)sc3c2)cc1F

The remaining lines, values behind:

Compound	inhibition (at 5 µM)	outcome	inhibition (inhibition, at 20 µM) [%]
O=C(NCC1CCNCC1)c1cc2ccc(-c3ccc(C4CCCCC4)cc3)cc2[nH]1	31% (inactive)		
O=C(NCC1CCNCC1)c1cc2ccc(N3CCC(N4CCCCC4)CC3)cc2s1	14% (inactive)		
O=C(NCC1CCNCC1)c1coc2cc(-c3ccc(N4CCCCC4)cc3)ccc12	59%		
N#Cc1cccc(-c2ccc3cc(C(=O)NCC4CCNCC4)[nH]c3c2)c1	0% (inactive)		
CN1CCN(c2ccc(-c3ccc4cc(C(=O)NCC5CCNCC5)oc4c3)cc2)CC1	32% (inactive)		
CC(C)(C)c1cccc(-c2ccc3cc(C(=O)NCC4CCNCC4)[nH]c3c2)c1	17% (inactive)		
O=C(NCC1CCNCC1)c1cc2ccc(Nc3ccc(OC(F)(F)F)cc3)cc2o1	23% (inactive)		
O=C(NCC1CCNCC1)c1cc2ccc(-c3ccc(-c4ccccc4)cc3)cc2o1	0% (inactive)		
O=C(NCC1CCNCC1)c1cc2ccc(-c3ccsc3)cc2[nH]1	10% (inactive)		
O=C(NCC1CCNCC1)c1cc2ccc(-c3ccc(N4CCOCC4)cc3)cc2o1	40% (inactive)		
O=C(NCC1CCNCC1)c1cc2ccc(-c3ccc(C(=O)N4CCC(N5CCCCC5)CC4)cc3)cc2o1	0% (inactive)		
O=C(NCC1CCNCC1)c1cc2ccc(-c3ccc(C(=O)N4CCCCC4)cc3)cc2o1	0% (inactive)		
O=C(NCc1ccc(-c2ccc3cc(C(=O)NCC4CCNCC4)oc3c2)cc1)OCc1ccccc1	27% (inactive)		
O=C(NCC1CCNCC1)c1cc2ccc(-c3ccc(N4CCNCC4)cc3)cc2[nH]1		inactive	48
N#Cc1ccc(-c2ccc3[nH]c(C(=O)NCC4CCNCC4)cc3c2)cc1F	8% (inactive)		
O=C(NCC1CCNCC1)c1cc2ccc(-c3ccc(N4CCOCC4)cc3)cc2[nH]1	29% (inactive)		
O=C(NCC1CCNCC1)c1cc2ccc(-c3ccc(C4CCCCC4)cc3)cc2o1		inactive	54
O=C(NCC1CCNCC1)c1cc2ccc(-c3ccc(N4CCNCC4)cc3)cc2o1	38% (inactive)		
O=C(NCC1CCNCC1)c1cc2cc(-c3ccc(N4CCNCC4)cc3)ccc2[nH]1	36% (inactive)		
O=C(NCC1CCNCC1)c1cc2ccc(-c3ccc4c(c3)OCCO4)cc2o1	33% (inactive)		
COc1ccc(Oc2ccc3cc(C(=O)NCC4CCNCC4)oc3c2)cc1	24% (inactive)		
O=C(NCC1CCNCC1)c1cc2ccc(Nc3ccc(N4CCCCC4)cc3)cc2o1	93%		
O=C(NCC1CCNCC1)c1cc2ccc(-c3cccc(-c4ccccc4)c3)cc2o1		inactive	49
O=C(NCC1CCNCC1)c1cc2ccc(Oc3ccc(Oc4ccc(Cl)cc4)cc3)cc2s1	50% (inactive)		
O=C(NCC1CCNCC1)c1c[nH]c2ccc(-c3ccc(N4CCCCC4)cc3)cc12	43% (inactive)		
Cc1cc(C#N)ccc1-c1ccc2[nH]c(C(=O)NCC3CCNCC3)cc2c1	0% (inactive)		
O=C(NCC1CCNCC1)c1cc2ccc(N3CCC(N4CCCC4)CC3)cc2s1	20% (inactive)		
O=C(NCC1CCNCC1)c1cc2ccc(-c3ccc(C(=O)N4CCCCCC4)cc3)cc2o1	0% (inactive)		
O=C(NCC1CCNCC1)c1cc2cc(-c3ccc(N4CCOCC4)cc3)ccc2[nH]1	52% (inactive)		
O=C(NCC1CCNCC1)c1cc2ccc(Oc3ccc(Oc4ccc(Cl)cc4)cc3)cc2o1	20% (inactive)		

Reference: PubChem BioAssay AID1794804 (Yongcheng Song lab at Baylor College of Medicine, 2022)
